# Assay results: patent publication US20240180880A1, “METHODS OF USING EHMT2 INHIBITORS IN TREATING OR PREVENTING BLOOD DISORDERS” (Epizyme, Inc., priority 2017, published 2024)
# Test system: Human CD34+ progenitor cells
# Assay: Human CD34+ progenitors assay for fetal hemoglobin induction, % HbF+ cells by FACS (healthy donors)
# Type: cell-based
# Conditions: for % HbF+ cells: 26% basal level
# Source text: An in-vitro system to test the ability of compound to induce fetal hemoglobin expression was developed. This system used Human CD34+ progenitor cells freshly isolated from healthy donors blood collections. Peripheral blood mononuclear cells (PBMCs) were isolated from whole blood by density gradient centrifugation using SepMatem-50 and Lymphoprep™ from Stem Cell Technologies. CD34^+ hematopoietic progenitor cells (HSPCs) were isolated from PBMCs by magnetic separation using Stem Cells Technologies CD34+ positive selection/isolation kit (Stem Cell Technologies, #18056). CD34 cells were cultured using a 2-phase 14 day culture system. During phase 1 (day 0 to day 7) cells were expanded. Expansion was followed by phase 2 (day 7 to day 14) where cells were differentiated toward the erythroid lineage. Compounds were added on day 1 and day 7 as 1000× stock after being diluted in dimethyl sulfoxide (DMSO) in a 3-fold series. Final DMSO concentration in the assay was 0.1%. At day 14 cells were harvested for Fluorescent Activated Cell Sorting (FACS) analysis and for HbF quantitation by Mass spectrometry. For cell surface and intracellular marker analysis by FACS, cells were fixed and stained with a cocktail of antibodies covering erythroid lineage markers, HbF and H3 and H3K9me2 (Table 11). Data was collected using Canto II flow cytometer (BD Biosciences) and the FACSDiva software. Data was analyzed using FlowJo software. % HbF^+ cells and ratios H3/H3K9me2 intensities were calculated for CD71^+/CD235a^+ gated populations.
# A list of pharmacological agents was evaluated for their potential to induce fetal Hemoglobin (HbF) in order to identify combination partners for our EHMT1/2 inhibitors. HbF can be induced by toxicity; therefore, the potential of the agents to induce HbF were evaluated in the context of cell viability. (Table 12). The EHMT1/2 inhibitor Compound 205 was evaluated in combination with a fixed dose of 10 μM Hydroxyurea and 0.1 μM Pomalidomide. […] 10 μM Hydroxyurea as a single agent was able to induce 01% HbF^+ cells from 26% basal level to 45% while 0.016 μM compound 205 as a single agent induced to 45%. In combination these two agents were able to induced % HbF^+ to 63% (FIG. 3A). […] 0.1 μM Pomalidomide as a single agent was able to induce ° % HbF cells from 26% basal level to 48% while 0.016 μM compound 205 as a single agent induced to 45%. In combination these two agents were able to induce % HbF^+ to 78% (FIG. 3B).
# Hydroxyurea was also evaluated as single agent and in combination with the EHMT1/2 inhibitor compound 205 in a matrix format using CD34^+ cells isolated from a pool of 5 healthy donors. […] (FIG. 4 and FIG. 5, respectively). It is noted that for Loewe excess determination in Chalice, data was normalized to the highest and lowest Hbγ induction observed under the conditions and dose ranges in the assay.
compound,measurement,setting,value
CNc1cc(C)nc(Nc2ccc(OC)c(OCCCN3CCCC3)c2)n1 [Compound 205],% HbF+ cells,0.016 μM compound 205 as a single agent,45%
same,% HbF+ cells,0.016 μM compound 205 in combination with 0.1 μM Pomalidomide,78%
same,% HbF+ cells,0.016 μM compound 205 in combination with 10 μM Hydroxyurea,63%
same,combination effect on % HbF+ cells (FACS analysis),"compound 205 with Hydroxyurea, matrix format, CD34+ cells from a pool of 5 healthy donors",synergistically
